Columns and labels:
MT4 [1] = experiment: Inhibitory activity of compound was determined against HIV-1 replication in MT-4 cells; […]; format: functional, cell-based; conditions: Homo sapiens
MT4 [2] = experiment: Inhibitory activity against HIV-1 replication in MT-4 cells; Not cytotoxic; format: functional, cell-based; conditions: Homo sapiens
MT4 [3] = experiment: Inhibitory activity against HIV-1 replication in MT-4 cells; not cytotoxic; format: functional, cell-based; conditions: Homo sapiens
MT4 [4] = experiment: Inhibitory activity of compound was determined against HIV-1 replication in MT-4 cells; format: functional, cell-based; conditions: Homo sapiens
MT4 [5] = experiment: Compound was tested for its […] in MT-4 cells; format: functional; conditions: Homo sapiens, read-out: CD50 (the source's name)
MT4 [6] = experiment: Inhibitory activity of compound was determined against HIV-1 replication in MT-4 cells; weak activity; format: functional, cell-based; conditions: Homo sapiens

| SMILES | EC50 (MT4 [1]) | IC50 (MT4 [3]) | further results |
| --- | --- | --- | --- |
| Nc1nc(O)c2ncn([C@H]3CO[C@H](CP(=O)(O)O)O3)c2n1 | > 332 µM |  | IC50 (MT4 [2]): > 332 µM |
| Cc1cn([C@H]2CO[C@H](CP(=O)(O)O)O2)c(=O)[nH]c1=O | > 332 µM | > 332 µM |  |
| Nc1ccn([C@H]2CO[C@H](CP(=O)(O)O)O2)c(=O)n1 | > 332 µM | > 332 µM |  |
| Nc1nc(O)c2ncn([C@H]3CO[C@@H](CP(=O)(O)O)O3)c2n1 | > 332 µM | > 332 µM |  |
| Cc1cn([C@H]2CO[C@@H](CP(=O)(O)O)O2)c(=O)[nH]c1=O | > 332 µM | > 332 µM |  |
| Nc1ccn([C@H]2CO[C@@H](CP(=O)(O)O)O2)c(=O)n1 | 312 µM | > 332 µM |  |
| Cc1cn(C2COC(CO[PH](=O)O)O2)c(=O)[nH]c1=O (stereo not given) |  |  | EC50 (MT4 [4]): 51 µM; CC50 (MT4 [5]): 342 µM |
| CC(=O)Nc1ccn(C2COC(CP(=O)(O)O)O2)c(=O)n1 (stereo not given) |  |  | EC50 (MT4 [6]): 312 µM |

— ChEMBL document CHEMBL1151090, “Synthesis of racemic 2-phosphonomethyl-1,3-dioxolane nucleoside analogues as potential antiviral agents” (Bioorg Med Chem Lett, 1995)
